Reference: paper PMC10527105, “Chirality Matters: Fine-Tuning of Novel Monoamine Reuptake Inhibitors Selectivity through Manipulation of Stereochemistry” (Biomolecules, 2023)

Tested on: Schaffer collateral (SC)-CA1 synapses
Assay: Ex vivo electrophysiology in hippocampal slices of aged rats
Parameters: species or system Sprague–Dawley rats
Method: Animals. Male Sprague–Dawley rats (22–23 months old) were bred and kept in the Core Unit of Biomedical Research, Division of Laboratory Animal Science and Genetics, Medical University of Vienna. Rats were housed in groups of two in standard Makrolon cages filled with autoclaved woodchips (temperature: 22 ± 2 °C; humidity: 55 ± 5%; 12 h artificial light/12 h dark cycle: light on at 7:00 am). Tap water and food were provided ad libitum. The study was carried out according to the guidelines of the ethics committee at the Medical University of Vienna and was approved by the Federal Ministry of Education, Science, and Culture, Austria (BMBWF-66.009/235/V/3b/2018).
Hippocampal Slices Preparation. Acutely dissected hippocampal slices obtained from rat singles administered with vehicle or 10 mg/kg for 7h (1 h prior to brain extraction) were prepared as previously described, with slight modifications. Briefly, rats were anesthetized by 50 s isoflurane inhalation exposure, and (upon the absence of corneal reflexes), animals were decapitated using a high-precision, hardened, sharp-blade rodent guillotine (DCAP-M, World Precision Instruments, Inc., Sarasota, FL, USA). […]
Extracellular recording. […] An AxoClamp-2B amplifier, Digidata-1440 interface (Axon Instruments, Molecular Devices, Berkshire, UK), and pClamp-11 software (Molecular Devices, Berkshire, UK) were used for data acquisition and analysis. fEPSPs were recorded at 0.033 Hz. […]
Hippocampal synaptic potentiation was induced by delivering 4 trains of 20 pulses at 100 Hz (200 μs/pulse) with a 500 ms inter-train interval, a variant of the different forms of HFS protocol known to induce both post-tetanic potentiation (PTP) and long-term potentiation (LTP) in hippocampal CA3-CA1 hippocampal synapses in young rodents. Synaptic plasticity was assessed by quantifying the time course of changes in fEPSP slope (decaying phase) after applying the plasticity-inducing protocol, normalized to the average of all fEPSP slopes recorded during the preceding baseline recording period. […]

SMILES: [O-][S@+](Cc1cccs1)[C@H](c1ccccc1)c1cccc(Br)c1 [Compound 8h, (R,R)-2-((((3-bromophenyl)(phenyl)methyl)sulfinyl)methyl)thiophene]
- basal synaptic transmission: fEPSP slopes (I/O curves) vs vehicle (acute 10 mg/kg, aged rats (22–23 months), hippocampal slices): significantly enhanced
- long-term potentiation (LTP) after HFS vs vehicle (acute treatment, aged rats, for at least 40 min after HFS): significantly increased and maintained LTP
- early post-tetanic potentiation (PTP) responses vs vehicle (acute treatment, aged rats, right after HFS, Sidak post hoc p < 0.0001): statistically significant (p < 0.0001) enhancement
